From patent US10808005B2, “Ligand for orphan nuclear receptor Nur77 and uses thereof” (IXMEDICINE (XIAMEN) BIOLOGICAL TECHNOLOGY COMPANY LIMITED, priority 2016, dated 2020)

What was measured:
[1] = tested on: tumors; assay: Tumor inhibition in Nur77-knocked-out PYVT mice; assay type: in vivo, Nur77-knocked-out type; settings: Nur77-deficient; YXY101 5 mg/kg or XS0284 10 mg/kg intragastric, two weeks
[2] = tested on: IκBα; assay: Immunoblot of IκBα in Nur77−/−MEF cells; assay type: cell-based
Source text: (§1) The above results were also confirmed by using MEF cells and Nur77−/−MEF cells (i.e., MEF cells not expressing Nur77). […] Subsequently, IκBα in the cells was detected by WB.

[3] = tested on: IκBα; assay: Immunoblot of IκBα in MEF cells; assay type: cell-based; settings: MEF cells expressing Nur77
Source text: as §1

[4] = tested on: tumors; assay: Tumor inhibition in wild type PYVT mice; assay type: in vivo; settings: YXY101 5 mg/kg or XS0284 10 mg/kg intragastric, two weeks
[5] = tested on: mTOR signaling pathway; assay: Immunoblot of p-mTOR, p-P70S6K, p-S6 in TNFα-treated starved MDA-MB-231 cells; assay type: cell-based
[6] = tested on: IκBα and phosphorylated IKKα/β; assay: Immunoblot of IκBα and phosphorylated IKKα/β in TNFα-treated HepG2 cells; assay type: cell-based; settings: TNFα 20 ng/mL 30 minutes
Source text: IκBα and phosphorylated IKKα/β in the cells were then detected by WB.
In addition, HepG2 cells were also applied in the experiment. […] IκBα in the cells was then detected by WB.

[7] = tested on: BT474, ZR-75-1, BT549, HCC1937, HS578T, MCF-7, and T47D; assay: Inhibition rate on seven breast cancer cells; assay type: cell-based; settings: various breast cancer cells, FIG. 11C
[8] = Acute toxicity model mice, histopathology; assay type: in vivo
Source text: The tissue morphologies of the heart, liver, small intestine, white fat and kidney were observed by Histopathological method.

[9] = tested on: breast cancer; assay: PYVT mice under LFD or HFD feeding, intragastric administration; assay type: in vivo, WT mice and PYVT mice
Source text: The above conclusions can be reflected in the size of tumor tissue and the change of body weight of mice.

[10] = single intragastric injection 200 mg/kg
[11] = single intraperitoneal injection 20 mg/kg

SMILES: Cc1c(O)c(O)cc2c1C(S(=O)(=O)[O-])C=C1[C@@]2(C)CC[C@@]2(C)[C@@H]3C[C@](C)(C(=O)O)CC[C@]3(C)CC[C@]12C.[Na+] (stereo partly drawn) [XS0284]
- tumor inhibition (tumor tissue size) [1]: neither of the two compounds could exert an inhibitory effect
- TNFα-induced degradation of IκBα [2]: lost the ability to inhibit IκBα degradation
- TNFα-induced degradation of IκBα [3]: able to inhibit TNFα-induced degradation of IκBα
- tumor inhibition (tumor tissue size) [4]: effective in inhibiting tumors in wild-type mice
- inhibitory effect on P-mTOR, P-p70S6K and P—S6 [5]: strong inhibitory effect
- TNFα-induced degradation of IκBα [6]: capable of inhibiting TNFα-induced degradation of IκBα
- inhibitory effects on proliferation compared with YXY101 [7]: close or even stronger than that of YXY101
- toxic effect compared with YXY101 ([8]; intragastric injection group): weaker toxic effect on the liver and small intestine than YXY101
- toxicity compared with YXY101 ([8]; intraperitoneal injection group): less toxicity to kidney and adipose than YXY101
- acute toxicity to animals compared with YXY101 ([8]; overall): less acute toxicity to animals than YXY101
- adipose tissue morphology [8, 10]: the adipose tissue cells had clear boundaries, and were neatly arranged, and the fiber breakage was reduced
- heart tissue morphology [8, 10]: relatively clear boundaries, the myocardial fibers were arranged relatively neatly and had obvious boundaries
- liver tissue morphology [8, 10]: the hepatocytes in the liver tissue had obvious boundaries and clear structure
- small intestine tissue morphology [8, 10]: the intestinal tissue had clear boundaries, the cells were plump, the intestinal villi were neatly arranged and had obvious boundaries
- adipose tissue morphology [8, 11]: the adipose tissue cells had clear boundaries and were arranged neatly, the fiber breakage was reduced
- heart tissue morphology [8, 11]: relatively clear boundaries, the myocardial fibers were relatively neatly arranged and had obvious boundaries
- kidney tissue morphology [8, 11]: the kidney tissue had clear glomerular boundaries, the cells were full, and there was a small amount of inflammatory cell infiltration
- liver tissue morphology [8, 11]: the hepatocytes in the liver tissue had obvious boundaries and clear structure
- inhibition effect on breast cancer compared with YXY101 ([9]; high-fat feeding conditions): stronger than that of YXY101
- inhibitory effect on breast cancer compared with YXY101 ([9]; low-fat feeding conditions): close to that of YXY101
- development of breast cancer ([9]; low-fat or high-fat feeding conditions): can significantly inhibit the development of breast cancer
